Reference: US12097241B2, “Methods of treating kidney failure, and/or improving or stablizing renal function using modified relaxin polypeptides” (BRISTOL-MYERS SQUIBB COMPANY, priority 2017, dated 2024)
Like-named read-outs stand apart in the source and are kept apart here.

Molecular target: T1, human RXFP1 receptor (Homo sapiens, UniProt Q9HBX9)
T1 construct: expressed in transfected cells
T1 sequence (Q9HBX9 1-757): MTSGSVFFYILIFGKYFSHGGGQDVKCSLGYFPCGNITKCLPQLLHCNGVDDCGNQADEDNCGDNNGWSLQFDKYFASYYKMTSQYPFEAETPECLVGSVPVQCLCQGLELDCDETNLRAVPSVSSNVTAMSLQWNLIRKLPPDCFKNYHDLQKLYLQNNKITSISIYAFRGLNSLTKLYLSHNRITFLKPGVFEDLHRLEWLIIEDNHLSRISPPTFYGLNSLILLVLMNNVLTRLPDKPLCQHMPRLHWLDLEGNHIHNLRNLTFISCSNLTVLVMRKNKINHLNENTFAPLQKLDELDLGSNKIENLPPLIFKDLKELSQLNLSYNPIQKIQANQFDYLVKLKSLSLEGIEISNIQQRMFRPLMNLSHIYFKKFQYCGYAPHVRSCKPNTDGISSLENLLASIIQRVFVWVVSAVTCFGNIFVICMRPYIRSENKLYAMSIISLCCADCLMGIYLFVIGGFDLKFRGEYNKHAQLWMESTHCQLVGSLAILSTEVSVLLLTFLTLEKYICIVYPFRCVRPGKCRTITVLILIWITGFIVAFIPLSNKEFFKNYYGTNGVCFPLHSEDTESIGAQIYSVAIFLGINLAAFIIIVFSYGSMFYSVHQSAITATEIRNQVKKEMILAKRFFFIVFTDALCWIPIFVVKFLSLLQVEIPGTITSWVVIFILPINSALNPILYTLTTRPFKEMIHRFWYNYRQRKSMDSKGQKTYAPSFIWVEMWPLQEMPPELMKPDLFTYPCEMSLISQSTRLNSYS
Assay: Intracellular cAMP accumulation assay
Assay type: cell-based
Procedure: The intracellular cAMP accumulation assay described herein was used to assess relaxin bioactivity and potency.
CHO-K1 cells (ATCC; Cat. #CRL-9618) stably expressing the human RXFP1 receptor (locus number LOC59350) (10,000/well) were plated into 96-well plates and cultured overnight at 37° C. and 5% CO2. On the following day, the medium was removed from the wells and the cells were stimulated with the addition of ligand (relaxin polypeptide) in 50 uL buffer (1×HBSS, 5 mM HEPES (7.2), 0.5 mM IBMX, 0.1% BSA); incubation was for 10 min at 37° C. Unstimulated cells were utilized as reference controls. Reactions were terminated and cellular cAMP levels were measured using the Homogeneous Time Resolved Fluorescence (HTRF) Dynamic 2 cAMP kit (CisBio, #62AM4PEC) according to the manufacturer's protocol. Plates were analyzed using an EnVision 2104 Multilablel Reader (PerkinElmer). Signal was expressed in terms of the ratio of fluorescence intensity @ 665 nm/fluorescence intensity @620 nm×10,000. The concentration of cAMP in the sample was determined by comparison with standard curves generated from known concentrations of cAMP. The potency of each relaxin was determined using a ten-point concentration response curves which was performed in duplicate. The data were analyzed using Microsoft Excel, Version 2013 Xlfit software. Effective concentration 50 (EC50) values, the point at which the response was one-half maximal, were calculated using a four-parameter logistic equation that allowed for a variable-slope (Table 3).

Row | Structure (SMILES) | EC50 [nM] | EC50 (CHO-K1 cells stably expressing human RXFP1, 10 min at 37° C., HTRF cAMP, average, read-out: hRXFP1/CHO-K1 cAMP EC50 (nM, avg)) [nM]
1 | CC[C@H](C)[C@@H]1NC(=O)[C@H](C)NC(=O)[C@H]([C@@H](C)CC)NC(=O)[C@H](CCC(N)=O)NC(=O)[C@H](C)NC(=O)[C@H](CCCNC(=N)N)NC(=O)[C@H](C(C)C)NC(=O)[C@H](CC(C)C)NC(=O)[C@H](CCC(=O)O)NC(=O)[C@H](CCCNC(=N)N)NC(=O)CNC(=O)[C@@H](NC(=O)[C@H](CC(C)C)NC(=O)[C@H](CCCCN)NC(=O)[C@@H](NC(=O)[C@@H](NC(=O)[C@H](CCC(=O)O)NC(=O)[C@H](CCC(=O)O)NC(=O)[C@H](CCSC)NC(=O)[C@H](Cc2c[nH]c3ccccc23)NC(=O)[C@H](CO)NC(=O)[C@H](C)N)C(C)C)[C@@H](C)CC)CSSC[C@@H]2NC(=O)[C@@H](NC(=O)[C@H](CCCCN)NC(=O)[C@H](CC(N)=O)NC(=O)[C@H](C)NC(=O)[C@H](CC(C)C)NC(=O)[C@H](C)NC(=O)[C@H](CO)NC(=O)[C@H](Cc3ccc(O)cc3)NC(=O)[C@H](CC(C)C)NC(=O)[C@@H](N)Cc3ccc(C(C)=NOCCNC(=O)[C@H](CCCCN)NC(=O)[C@H](CCCCN)NC(=O)CC[C@H](NC(=O)CCCCCCCCCCCCC(=O)O)C(=O)O)cc3)CSSC[C@H](NC(=O)CNC(=O)[C@H](C(C)C)NC(=O)[C@H](Cc3c[nH]cn3)NC2=O)C(=O)N[C@@H]([C@@H](C)O)C(=O)N[C@@H](CCCCN)C(=O)N[C@@H](CCCNC(=N)N)C(=O)N[C@@H](CO)C(=O)N[C@@H](CC(C)C)C(=O)N[C@@H](C)C(=O)N[C@@H](CCCNC(=N)N)C(=O)N[C@@H](Cc2ccccc2)C(=O)N[C@H](C(=O)O)CSSC[C@@H](C(=O)NCC(=O)N[C@@H](CCSC)C(=O)N[C@@H](CO)C(=O)N[C@H](C(=O)N[C@@H](Cc2c[nH]c3ccccc23)C(=O)N[C@@H](CO)C(=O)O)[C@@H](C)O)NC1=O [AQ1-KK-Glu^γ-C13-COOH] | 0.1 | –
2 | CC[C@H](C)[C@@H]1NC(=O)[C@H](C)NC(=O)[C@H]([C@@H](C)CC)NC(=O)[C@H](CCC(N)=O)NC(=O)[C@H](C)NC(=O)[C@H](CCCNC(=N)N)NC(=O)[C@H](C(C)C)NC(=O)[C@H](CC(C)C)NC(=O)[C@H](CCC(=O)O)NC(=O)[C@H](CCCNC(=N)N)NC(=O)CNC(=O)[C@@H](NC(=O)[C@H](CC(C)C)NC(=O)[C@H](CCCCN)NC(=O)[C@@H](NC(=O)[C@@H](NC(=O)[C@H](CCC(=O)O)NC(=O)[C@H](CCC(=O)O)NC(=O)[C@H](CCSC)NC(=O)[C@H](Cc2c[nH]c3ccccc23)NC(=O)[C@H](CO)NC(=O)[C@H](C)N)C(C)C)[C@@H](C)CC)CSSC[C@@H]2NC(=O)[C@@H](NC(=O)[C@H](CCCCN)NC(=O)[C@H](CC(N)=O)NC(=O)[C@H](C)NC(=O)[C@H](CC(C)C)NC(=O)[C@H](C)NC(=O)[C@H](CO)NC(=O)[C@H](Cc3ccc(O)cc3)NC(=O)[C@H](CC(C)C)NC(=O)[C@@H](N)Cc3ccc(C(C)=NOCCNC(=O)[C@H](CCCCN)NC(=O)[C@H](CCCCN)NC(=O)[C@H](CO)NC(=O)[C@H](C)NC(=O)CNC(=O)[C@H](CO)NC(=O)[C@H](C)NC(=O)CNC(=O)CC[C@H](NC(=O)CCCCCCCCCCCCC(=O)O)C(=O)O)cc3)CSSC[C@H](NC(=O)CNC(=O)[C@H](C(C)C)NC(=O)[C@H](Cc3c[nH]cn3)NC2=O)C(=O)N[C@@H]([C@@H](C)O)C(=O)N[C@@H](CCCCN)C(=O)N[C@@H](CCCNC(=N)N)C(=O)N[C@@H](CO)C(=O)N[C@@H](CC(C)C)C(=O)N[C@@H](C)C(=O)N[C@@H](CCCNC(=N)N)C(=O)N[C@@H](Cc2ccccc2)C(=O)N[C@H](C(=O)O)CSSC[C@@H](C(=O)NCC(=O)N[C@@H](CCSC)C(=O)N[C@@H](CO)C(=O)N[C@H](C(=O)N[C@@H](Cc2c[nH]c3ccccc23)C(=O)N[C@@H](CO)C(=O)O)[C@@H](C)O)NC1=O [AQ1-KKSAGSAG-Glu^γ-C13-COOH] | 0.27 | –
3 | CC[C@H](C)[C@@H]1NC(=O)[C@H](C)NC(=O)[C@H]([C@@H](C)CC)NC(=O)[C@H](CCC(N)=O)NC(=O)[C@H](C)NC(=O)[C@H](CCCNC(=N)N)NC(=O)[C@H](C(C)C)NC(=O)[C@H](CC(C)C)NC(=O)[C@H](CCC(=O)O)NC(=O)[C@H](CCCNC(=N)N)NC(=O)CNC(=O)[C@@H](NC(=O)[C@H](CC(C)C)NC(=O)[C@H](CCCCN)NC(=O)[C@@H](NC(=O)[C@@H](NC(=O)[C@H](CCC(=O)O)NC(=O)[C@H](CCC(=O)O)NC(=O)[C@H](CCSC)NC(=O)[C@H](Cc2c[nH]c3ccccc23)NC(=O)[C@H](CO)NC(=O)[C@H](C)N)C(C)C)[C@@H](C)CC)CSSC[C@@H]2NC(=O)[C@@H](NC(=O)[C@H](CCCCN)NC(=O)[C@H](CC(N)=O)NC(=O)[C@H](C)NC(=O)[C@H](CC(C)C)NC(=O)[C@H](C)NC(=O)[C@H](CO)NC(=O)[C@H](Cc3ccc(O)cc3)NC(=O)[C@H](CC(C)C)NC(=O)[C@@H](N)Cc3ccc(C(C)=NOCCNC(=O)[C@H](CCCCN)NC(=O)[C@H](CCCCN)NC(=O)[C@H](CO)NC(=O)CNC(=O)CNC(=O)[C@H](CO)NC(=O)CNC(=O)CNC(=O)[C@H](CCC(=O)O)NC(=O)CCCCCCCCCCCCC(=O)O)cc3)CSSC[C@H](NC(=O)CNC(=O)[C@H](C(C)C)NC(=O)[C@H](Cc3c[nH]cn3)NC2=O)C(=O)N[C@@H]([C@@H](C)O)C(=O)N[C@@H](CCCCN)C(=O)N[C@@H](CCCNC(=N)N)C(=O)N[C@@H](CO)C(=O)N[C@@H](CC(C)C)C(=O)N[C@@H](C)C(=O)N[C@@H](CCCNC(=N)N)C(=O)N[C@@H](Cc2ccccc2)C(=O)N[C@H](C(=O)O)CSSC[C@@H](C(=O)NCC(=O)N[C@@H](CCSC)C(=O)N[C@@H](CO)C(=O)N[C@H](C(=O)N[C@@H](Cc2c[nH]c3ccccc23)C(=O)N[C@@H](CO)C(=O)O)[C@@H](C)O)NC1=O [AQ1-KKSGGSGG-Glu^α-C13-COOH] | 0.27 | –
4 | CC[C@H](C)[C@@H]1NC(=O)[C@H](C)NC(=O)[C@H]([C@@H](C)CC)NC(=O)[C@H](CCC(N)=O)NC(=O)[C@H](C)NC(=O)[C@H](CCCNC(=N)N)NC(=O)[C@H](C(C)C)NC(=O)[C@H](CC(C)C)NC(=O)[C@H](CCC(=O)O)NC(=O)[C@H](CCCNC(=N)N)NC(=O)CNC(=O)[C@@H](NC(=O)[C@H](CC(C)C)NC(=O)[C@H](CCCCN)NC(=O)[C@@H](NC(=O)[C@@H](NC(=O)[C@H](CCC(=O)O)NC(=O)[C@H](CCC(=O)O)NC(=O)[C@H](CCSC)NC(=O)[C@H](Cc2c[nH]c3ccccc23)NC(=O)[C@H](CO)NC(=O)[C@H](C)N)C(C)C)[C@@H](C)CC)CSSC[C@@H]2NC(=O)[C@@H](NC(=O)[C@H](CCCCN)NC(=O)[C@H](CC(N)=O)NC(=O)[C@H](C)NC(=O)[C@H](CC(C)C)NC(=O)[C@H](C)NC(=O)[C@H](CO)NC(=O)[C@H](Cc3ccc(O)cc3)NC(=O)[C@H](CC(C)C)NC(=O)[C@@H](N)Cc3ccc(C(C)=NOCCNC(=O)[C@H](CCCCN)NC(=O)[C@H](CCCCN)NC(=O)[C@H](CO)NC(=O)CNC(=O)CNC(=O)[C@H](CO)NC(=O)CNC(=O)CNC(=O)CC[C@H](NC(=O)CCCCCCCCCCCCC(=O)O)C(=O)O)cc3)CSSC[C@H](NC(=O)CNC(=O)[C@H](C(C)C)NC(=O)[C@H](Cc3c[nH]cn3)NC2=O)C(=O)N[C@@H]([C@@H](C)O)C(=O)N[C@@H](CCCCN)C(=O)N[C@@H](CCCNC(=N)N)C(=O)N[C@@H](CO)C(=O)N[C@@H](CC(C)C)C(=O)N[C@@H](C)C(=O)N[C@@H](CCCNC(=N)N)C(=O)N[C@@H](Cc2ccccc2)C(=O)N[C@H](C(=O)O)CSSC[C@@H](C(=O)NCC(=O)N[C@@H](CCSC)C(=O)N[C@@H](CO)C(=O)N[C@H](C(=O)N[C@@H](Cc2c[nH]c3ccccc23)C(=O)N[C@@H](CO)C(=O)O)[C@@H](C)O)NC1=O [AQ1-KKSGGSGG-Glu^γ-C13-COOH] | 0.34 | –
5 | CC[C@H](C)[C@@H]1NC(=O)[C@H](C)NC(=O)[C@H]([C@@H](C)CC)NC(=O)[C@H](CCC(N)=O)NC(=O)[C@H](C)NC(=O)[C@H](CCCNC(=N)N)NC(=O)[C@H](C(C)C)NC(=O)[C@H](CC(C)C)NC(=O)[C@H](CCC(=O)O)NC(=O)[C@H](CCCNC(=N)N)NC(=O)CNC(=O)[C@@H](NC(=O)[C@H](CC(C)C)NC(=O)[C@H](CCCCN)NC(=O)[C@@H](NC(=O)[C@@H](NC(=O)[C@H](CCC(=O)O)NC(=O)[C@H](CCC(=O)O)NC(=O)[C@H](CCSC)NC(=O)[C@H](Cc2c[nH]c3ccccc23)NC(=O)[C@H](CO)NC(=O)[C@H](C)N)C(C)C)[C@@H](C)CC)CSSC[C@@H]2NC(=O)[C@@H](NC(=O)[C@H](CCCCN)NC(=O)[C@H](CC(N)=O)NC(=O)[C@H](C)NC(=O)[C@H](CC(C)C)NC(=O)[C@H](C)NC(=O)[C@H](CO)NC(=O)[C@H](Cc3ccc(O)cc3)NC(=O)[C@H](CC(C)C)NC(=O)[C@@H](N)Cc3ccc(/C(C)=N/OCCNC(=O)CN(C)C(=O)CN(C)C(=O)CN(C)C(=O)CN(C)C(=O)[C@H](CO)NC(=O)CC[C@H](NC(=O)CCCCCCCCCCCCC(=O)O)C(=O)O)cc3)CSSC[C@H](NC(=O)CNC(=O)[C@H](C(C)C)NC(=O)[C@H](Cc3c[nH]cn3)NC2=O)C(=O)N[C@@H]([C@@H](C)O)C(=O)N[C@@H](CCCCN)C(=O)N[C@@H](CCCNC(=N)N)C(=O)N[C@@H](CO)C(=O)N[C@@H](CC(C)C)C(=O)N[C@@H](C)C(=O)N[C@@H](CCCNC(=N)N)C(=O)N[C@@H](Cc2ccccc2)C(=O)N[C@H](C(=O)O)CSSC[C@@H](C(=O)NCC(=O)N[C@@H](CCSC)C(=O)N[C@@H](CO)C(=O)N[C@H](C(=O)N[C@@H](Cc2c[nH]c3ccccc23)C(=O)N[C@@H](CO)C(=O)O)[C@@H](C)O)NC1=O [AQ1-Sar-Sar-Sar-Sar-Ser-Glu^γ-C13-COOH] | – | 0.32
